In patent US20250345392A1, “ANNEXIN A1 LIQUID PHARMACEUTICAL COMPOSITION” (ResoTher Pharma A/S, priority 2022, published 2025):
Like-named read-outs stand apart in the source and are kept apart here. Ends that are not written are not given here.

Assay: 14-day repeat dose IV toxicity study with toxicokinetic evaluation on Day 1 and Day 14 in rats
Assay type: in vivo, Wistar rats
Details: rat; for C0 / AUC(0-inf) / half-life / clearance / Vd: in vivo
Procedure: Peptide 1 in blood samples collected from animals used in the studies (rat and dog) has been measured by an LC-MS/MS method. Analysis of samples collected in the pharmacokinetic study in rats was performed prior to validation of the method. Prior to analysis of samples from the GLP toxicology studies, the method was validated according to GLP to ensure that it is selective, accurate, reproducible, and able to produce reliable results. The method was validated over the range from 0.075 to 25 μg/mL Peptide 1.
In the 14-day intravenous toxicity study in Wistar rats (see study description below), samples were collected from 3 male and 3 female animals per group dosed at 0 (Control), 1, 3 or 10 mg/kg/day at 2, 5, 10, 20 and 40 minutes after dosing on Days 1 and 14. Samples were analysed for levels of Peptide 1.

[1] = iv, 1 mg/kg/day, IV 1.0 mg/kg/day, female, Day 1
[2] = iv, 1 mg/kg/day, IV 1.0 mg/kg/day, female, Day 14
[3] = iv, 1 mg/kg/day, IV 1.0 mg/kg/day, male, Day 1
[4] = iv, 1 mg/kg/day, IV 1.0 mg/kg/day, male, Day 14
[5] = iv, 3 mg/kg/day, IV 3.0 mg/kg/day, female, Day 1
[6] = iv, 3 mg/kg/day, IV 3.0 mg/kg/day, female, Day 14
[7] = iv, 3 mg/kg/day, IV 3.0 mg/kg/day, male, Day 1
[8] = iv, 3 mg/kg/day, IV 3.0 mg/kg/day, male, Day 14
[9] = iv, 10 mg/kg/day, IV 10 mg/kg/day, female, Day 1

Substance: AMVSEFLKQAWFIENEEQEYVQTLKSSKGGPGSAVSPYPTFNPSSDV-NH2 [Peptide 1]
- exposure (C(0) and AUCinf) versus dose (from 1 mg/kg to 10 mg/kg): increase proportional to dose level
- C0 (1 mg/kg, Group 2 (1 mg/kg), range over sexes and Days 1 and 14): 9960 to 11900 ng/mL
- AUC(0-inf) (1 mg/kg, Group 2 (1 mg/kg), range over sexes and Days 1 and 14, read-out: AUCinf): 918 to 1030 ng·h/mL
- C0 (3 mg/kg, Group 3 (3 mg/kg), range over sexes and Days 1 and 14): 23000 to 41900 ng/mL
- AUC(0-inf) (3 mg/kg, Group 3 (3 mg/kg), range over sexes and Days 1 and 14, read-out: AUCinf): 2280 to 3380 ng·h/mL
- C0 (10 mg/kg, Group 4 (10 mg/kg), range over sexes and Days 1 and 14): 92300 to 138000 ng/mL
- AUC(0-inf) (10 mg/kg, Group 4 (10 mg/kg), range over sexes and Days 1 and 14, read-out: AUCinf): 9130 to 10100 ng·h/mL
- half-life (all groups, read-out: elimination half-life): 7 to 8 min
- C0 [1]: 11900 ng/mL
- clearance [1]: 18.1 mL/min/kg
- AUC(0-inf) (iv, 1 mg/kg/day, IV 1.0 mg/kg/day, female, Day 1, read-out: AUC0-∞ (converted)): 918 ng·h/mL
- half-life (iv, 1 mg/kg/day, IV 1.0 mg/kg/day, female, Day 1, read-out: T1/2): 7.33 min
- Vd (iv, 1 mg/kg/day, IV 1.0 mg/kg/day, female, Day 1, read-out: Vz): 0.192 L/kg
- C0 [2]: 10900 ng/mL
- clearance [2]: 16.2 mL/min/kg
- AUC(0-inf) (iv, 1 mg/kg/day, IV 1.0 mg/kg/day, female, Day 14, read-out: AUC0-∞ (converted)): 1030 ng·h/mL
- half-life (iv, 1 mg/kg/day, IV 1.0 mg/kg/day, female, Day 14, read-out: T1/2): 7.11 min
- Vd (iv, 1 mg/kg/day, IV 1.0 mg/kg/day, female, Day 14, read-out: Vz): 0.167 L/kg
- C0 [3]: 9960 ng/mL
- clearance [3]: 18 mL/min/kg
- AUC(0-inf) (iv, 1 mg/kg/day, IV 1.0 mg/kg/day, male, Day 1, read-out: AUC0-∞ (converted)): 927 ng·h/mL
- half-life (iv, 1 mg/kg/day, IV 1.0 mg/kg/day, male, Day 1, read-out: T1/2): 8.4 min
- Vd (iv, 1 mg/kg/day, IV 1.0 mg/kg/day, male, Day 1, read-out: Vz): 0.218 L/kg
- C0 [4]: 10300 ng/mL
- clearance [4]: 17.2 mL/min/kg
- AUC(0-inf) (iv, 1 mg/kg/day, IV 1.0 mg/kg/day, male, Day 14, read-out: AUC0-∞ (converted)): 967 ng·h/mL
- half-life (iv, 1 mg/kg/day, IV 1.0 mg/kg/day, male, Day 14, read-out: T1/2): 7.66 min
- Vd (iv, 1 mg/kg/day, IV 1.0 mg/kg/day, male, Day 14, read-out: Vz): 0.19 L/kg
- C0 [5]: 30600 ng/mL
- clearance [5]: 17.4 mL/min/kg
- AUC(0-inf) (iv, 3 mg/kg/day, IV 3.0 mg/kg/day, female, Day 1, read-out: AUC0-∞ (converted)): 2870 ng·h/mL
- half-life (iv, 3 mg/kg/day, IV 3.0 mg/kg/day, female, Day 1, read-out: T1/2): 8 min
- Vd (iv, 3 mg/kg/day, IV 3.0 mg/kg/day, female, Day 1, read-out: Vz): 0.201 L/kg
- C0 [6]: 41900 ng/mL
- clearance [6]: 14.8 mL/min/kg
- AUC(0-inf) (iv, 3 mg/kg/day, IV 3.0 mg/kg/day, female, Day 14, read-out: AUC0-∞ (converted)): 3380 ng·h/mL
- half-life (iv, 3 mg/kg/day, IV 3.0 mg/kg/day, female, Day 14, read-out: T1/2): 6.85 min
- Vd (iv, 3 mg/kg/day, IV 3.0 mg/kg/day, female, Day 14, read-out: Vz): 0.146 L/kg
- C0 [7]: 23000 ng/mL
- clearance [7]: 21.9 mL/min/kg
- AUC(0-inf) (iv, 3 mg/kg/day, IV 3.0 mg/kg/day, male, Day 1, read-out: AUC0-∞ (converted)): 2280 ng·h/mL
- half-life (iv, 3 mg/kg/day, IV 3.0 mg/kg/day, male, Day 1, read-out: T1/2): 7 min
- Vd (iv, 3 mg/kg/day, IV 3.0 mg/kg/day, male, Day 1, read-out: Vz): 0.221 L/kg
- C0 [8]: 36700 ng/mL
- clearance [8]: 18.7 mL/min/kg
- AUC(0-inf) (iv, 3 mg/kg/day, IV 3.0 mg/kg/day, male, Day 14, read-out: AUC0-∞ (converted)): 2680 ng·h/mL
- half-life (iv, 3 mg/kg/day, IV 3.0 mg/kg/day, male, Day 14, read-out: T1/2): 6.67 min
- Vd (iv, 3 mg/kg/day, IV 3.0 mg/kg/day, male, Day 14, read-out: Vz): 0.18 L/kg
- C0 [9]: 127000 ng/mL
- clearance [9]: 17.4 mL/min/kg
